The record followed here is ChEMBL document CHEMBL3045653, “A novel amino acid substitution Ala-122-Tyr in ALS confers high-level and broad resistance across ALS-inhibiting herbicides” (Pest Manag Sci, 2012).

The target of the assay is T1, Acetolactate synthase (Raphanus raphanistrum, UniProt J7HAW4).
T1 sequence (J7HAW4 whole entry): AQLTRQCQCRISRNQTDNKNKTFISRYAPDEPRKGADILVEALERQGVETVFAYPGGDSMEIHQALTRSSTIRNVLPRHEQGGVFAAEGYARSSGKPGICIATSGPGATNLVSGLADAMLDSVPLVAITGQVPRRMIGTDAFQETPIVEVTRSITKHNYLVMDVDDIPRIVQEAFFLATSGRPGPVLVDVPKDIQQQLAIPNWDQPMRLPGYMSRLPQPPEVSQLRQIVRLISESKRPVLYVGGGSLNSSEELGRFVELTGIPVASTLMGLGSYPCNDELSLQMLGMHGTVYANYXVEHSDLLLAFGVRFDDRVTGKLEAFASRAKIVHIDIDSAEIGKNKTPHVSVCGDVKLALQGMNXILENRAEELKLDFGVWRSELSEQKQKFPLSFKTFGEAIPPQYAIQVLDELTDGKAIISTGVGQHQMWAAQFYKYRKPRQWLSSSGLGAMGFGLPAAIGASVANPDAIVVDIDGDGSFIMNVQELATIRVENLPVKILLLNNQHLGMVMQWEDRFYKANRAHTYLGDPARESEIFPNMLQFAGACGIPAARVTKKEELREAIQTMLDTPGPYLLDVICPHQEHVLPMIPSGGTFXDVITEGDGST
The assay is described as follows: Inhibition of ALS in ALS-herbicide-susceptible Raphanus raphanistrum […] (wild radish). The note with it: pooled result: one value given for 2 cell lines, strains, targets or settings; read-out: I50.

SMILES strings stand for the structures.

For `Cc1cc(C)nc(NC(=O)NS(=O)(=O)c2ccccc2C(=O)O)n1` [SULFOMETURON], the IC50 turned out to be 23 nM.
